In patent US9995734B2, “Human T cell line assay for evaluating the immunologic identity of glatiramer acetate preparations” (Mylan Inc., priority 2013, dated 2018):
Several values for one entry are separate records, joined by “and”; a condition that tells them apart may be missing. Equal entries are not always repeated.

System: Donor 3 GMA T-Cell Lines
Assay: ATP proliferation assay (CellTiter Glo), Donor 3 GMA T-cell lines, incl. reactivity to non-canonical GA peptides
Format: cell-based, human
Conditions: for proliferation response to non-canonical GA peptides: 0, 1, 3, 10, 30 μg/mL; for Non-Canonical Peptide Non-Reactivity: proliferation <2 times no antigen control; for Non-Canonical Peptide Reactivity: at least one proliferation value >=2 times no antigen control

Question: What does the source list for poly (Glu-Ala-Tyr; 6:3:1) [GAT 631]?
Answer: proliferation response to non-canonical GA peptides (165-B5G and 165-E7G, Day 81): responded; Non-Canonical Peptide Non-Reactivity (165-B5G): GAT 631; Non-Canonical Peptide Non-Reactivity (165-C5G): GAT 631; Non-Canonical Peptide Reactivity (165-E7G): GAT 631; Non-Canonical Peptide Non-Reactivity (165-E9G): GAT 631; Non-Canonical Peptide Non-Reactivity (165-F5G): GAT 631; Non-Canonical Peptide Non-Reactivity (165-F10G): GAT 631; proliferation response to non-canonical GA peptides (165-H11G, Day 50): responded; Non-Canonical Peptide Reactivity (165-H11G): GAT 631; Reactive T-Cell Line (Donor 3 GMA lines, at least a 50% increase in proliferation relative to a control after stimulation with the non-canonical GA peptide): 165-H11G (Donor 3); Nonreactive T-Cell Line (Donor 3 GMA lines, stimulation with the non-canonical GA peptide): 165-B5G (Donor 3) and 165-C5G (Donor 3) and 165-C8G (Donor 3) and 165-E7G (Donor 3) and 165-E9G (Donor 3) and 165-F5G (Donor 3) and 165-F10G (Donor 3); Proliferation (luminescent ATP assay), Mean (T-cell line 165-05G, 1 μg/mL antigen, Day 50 of culturing, No Antigen Value 2149): 2004 RLU; Proliferation (luminescent ATP assay), Mean (T-cell line 165-05G, 3 μg/mL antigen, Day 50 of culturing, No Antigen Value 2149): 2207 RLU; Proliferation (luminescent ATP assay), Mean (T-cell line 165-05G, 10 μg/mL antigen, Day 50 of culturing, No Antigen Value 2149): 1928 RLU; Proliferation (luminescent ATP assay), Mean (T-cell line 165-05G, 30 μg/mL antigen, Day 50 of culturing, No Antigen Value 2149): 1829 RLU; Proliferation (luminescent ATP assay), Mean (T-cell line 165-B5G, 1 μg/mL antigen, Day 81 of culturing, No Antigen Value 2432): 4666 RLU; Proliferation (luminescent ATP assay), Mean (T-cell line 165-B5G, 1.25 μg/mL antigen, Day 55 of culturing, No Antigen Value 846): 1133 RLU; Proliferation (luminescent ATP assay), Mean (T-cell line 165-B5G, 2.5 μg/mL antigen, Day 55 of culturing, No Antigen Value 846): 1288 RLU; Proliferation (luminescent ATP assay), Mean (T-cell line 165-B5G, 3 μg/mL antigen, Day 81 of culturing, No Antigen Value 2432): 5536 RLU; Proliferation (luminescent ATP assay), Mean (T-cell line 165-B5G, 5 μg/mL antigen, Day 55 of culturing, No Antigen Value 846): 1511 RLU; Proliferation (luminescent ATP assay), Mean (T-cell line 165-B5G, 10 μg/mL antigen, Day 55 of culturing, No Antigen Value 846): 1645 RLU; Proliferation (luminescent ATP assay), Mean (T-cell line 165-B5G, 10 μg/mL antigen, Day 81 of culturing, No Antigen Value 2432): 4997 RLU; Proliferation (luminescent ATP assay), Mean (T-cell line 165-B5G, 30 μg/mL antigen, Day 81 of culturing, No Antigen Value 2432): 3637 RLU; Proliferation (luminescent ATP assay), Mean (T-cell line 165-C5G, 1.25 μg/mL antigen, autologous B-LCL): 435 RLU; Proliferation (luminescent ATP assay), Mean (T-cell line 165-C5G, 2.5 μg/mL antigen, autologous B-LCL): 465 RLU; Proliferation (luminescent ATP assay), Mean (T-cell line 165-C5G, 5 μg/mL antigen, autologous B-LCL): 504 RLU; Proliferation (luminescent ATP assay), Mean (T-cell line 165-C5G, 10 μg/mL antigen, autologous B-LCL): 423 RLU; Proliferation (luminescent ATP assay), Mean (T-cell line 165-E7G, 1 μg/mL antigen, Day 81 of culturing, No Antigen Value 2145): 4043 RLU; Proliferation (luminescent ATP assay), Mean (T-cell line 165-E7G, 1.25 μg/mL antigen, autologous B-LCL, Day 55): 2629 RLU; Proliferation (luminescent ATP assay), Mean (T-cell line 165-E7G, 2.5 μg/mL antigen, autologous B-LCL, Day 55): 2827 RLU; Proliferation (luminescent ATP assay), Mean (T-cell line 165-E7G, 3 μg/mL antigen, Day 81 of culturing, No Antigen Value 2145): 6457 RLU; Proliferation (luminescent ATP assay), Mean (T-cell line 165-E7G, 5 μg/mL antigen, autologous B-LCL, Day 55): 2950 RLU; Proliferation (luminescent ATP assay), Mean (T-cell line 165-E7G, 10 μg/mL antigen, Day 81 of culturing, No Antigen Value 2145): 5499 RLU; Proliferation (luminescent ATP assay), Mean (T-cell line 165-E7G, 10 μg/mL antigen, autologous B-LCL, Day 55): 3877 RLU; Proliferation (luminescent ATP assay), Mean (T-cell line 165-E7G, 30 μg/mL antigen, Day 81 of culturing, No Antigen Value 2145): 4178 RLU; Proliferation (luminescent ATP assay), Mean (T-cell line 165-E9G, 1 μg/mL antigen, Day 50 of culturing, No Antigen Value 1742): 1482 RLU; Proliferation (luminescent ATP assay), Mean (T-cell line 165-E9G, 1.25 μg/mL antigen, autologous B-LCL): 122 RLU; Proliferation (luminescent ATP assay), Mean (T-cell line 165-E9G, 2.5 μg/mL antigen, autologous B-LCL): 175 RLU; Proliferation (luminescent ATP assay), Mean (T-cell line 165-E9G, 3 μg/mL antigen, Day 50 of culturing, No Antigen Value 1742): 1593 RLU; Proliferation (luminescent ATP assay), Mean (T-cell line 165-E9G, 5 μg/mL antigen, autologous B-LCL): 207 RLU; Proliferation (luminescent ATP assay), Mean (T-cell line 165-E9G, 10 μg/mL antigen, autologous B-LCL): 179 RLU; Proliferation (luminescent ATP assay), Mean (T-cell line 165-E9G, 30 μg/mL antigen, Day 50 of culturing, No Antigen Value 1742): 1382 RLU; Proliferation (luminescent ATP assay), Mean (T-cell line 165-E9G, 10 μpg/mL antigen, Day 50 of culturing, No Antigen Value 1742): 1454 RLU; Proliferation (luminescent ATP assay), Mean (T-cell line 165-F5G, 1.25 μg/mL antigen, autologous B-LCL): 118 RLU; Proliferation (luminescent ATP assay), Mean (T-cell line 165-F5G, 2.5 μg/mL antigen, autologous B-LCL): 160 RLU; Proliferation (luminescent ATP assay), Mean (T-cell line 165-F5G, 5 μg/mL antigen, autologous B-LCL): 106 RLU; Proliferation (luminescent ATP assay), Mean (T-cell line 165-F5G, 10 μg/mL antigen, autologous B-LCL): 130 RLU; Proliferation (luminescent ATP assay), Mean (T-cell line 165-F10G, 1 μg/mL antigen, Day 50 of culturing, No Antigen Value 3752): 3755 RLU; Proliferation (luminescent ATP assay), Mean (T-cell line 165-F10G, 1.25 μg/mL antigen, autologous B-LCL): 948 RLU; Proliferation (luminescent ATP assay), Mean (T-cell line 165-F10G, 2.5 μg/mL antigen, autologous B-LCL): 1080 RLU; Proliferation (luminescent ATP assay), Mean (T-cell line 165-F10G, 3 μg/mL antigen, Day 50 of culturing, No Antigen Value 3752): 3543 RLU; Proliferation (luminescent ATP assay), Mean (T-cell line 165-F10G, 5 μg/mL antigen, autologous B-LCL): 1024 RLU; Proliferation (luminescent ATP assay), Mean (T-cell line 165-F10G, 10 μg/mL antigen, Day 50 of culturing, No Antigen Value 3752): 3702 RLU; Proliferation (luminescent ATP assay), Mean (T-cell line 165-F10G, 10 μg/mL antigen, autologous B-LCL): 944 RLU
